According to publication PMC10405867 (Journal of Enzyme Inhibition and Medicinal Chemistry, 2023):

Biological target: SARS-CoV-2 Mpro (Severe acute respiratory syndrome coronavirus 2, UniProt P0DTD1)
Assay: biochemical
Assay type: biochemical

Row | SMILES | IC50 | fold decreased 3CL-Pro inhibitory activity than unsubstituted counterpart 6a
1 | NS(=O)(=O)c1ccc(NC(=O)Cn2cc(CN3C(=O)C(=O)c4ccccc43)nn2)cc1 [6a, 2–(4-((2,3-Dioxoindolin-1-yl)methyl)-1H-1,2,3-triazol-1-yl)-N-(4-sulfamoylphenyl)acetamide] | 0.562 ± 0.005 µM | –
2 | NS(=O)(=O)c1ccc(NC(=O)Cn2cc(CN3C(=O)C(=O)c4cc(OC(F)(F)F)ccc43)nn2)cc1 [6d, 2–(4-((2,3-Dioxo-5-(trifluoromethoxy)indolin-1-yl)methyl)-1H-1,2,3-triazol-1-yl)-N-(4-sulfamoylphenyl)acetamide] | 1.05 ± 0.053 µM | about 2 fold
3 | CC(=O)c1ccc(NC(=O)Cn2cc(CN3C(=O)C(=O)c4ccccc43)nn2)cc1 [10a, N-(4-Acetylphenyl)-2–(4-((2,3-dioxoindolin-1-yl)methyl)-1H-1,2,3-triazol-1-yl)acetamide] | 12.3 ± 0.73 µM | –
4 | COc1ccc2c(c1)C(=O)C(=O)N2Cc1cn(CC(=O)Nc2ccc(C(C)=O)cc2)nn1 [10b, N-(4-Acetylphenyl)-2–(4-((5-methoxy-2,3-dioxoindolin-1-yl)methyl)-1H-1,2,3-triazol-1-yl)acetamide] | 17.1 ± 0.815 µM | –
